{"source": "patent US20220160619A1", "about": "“Effervescent Drug Formulations” (Complete Medical Solutions, LLC, priority 2020, published 2022)", "origin": "cited, not measured here", "settings": "long-term metformin therapy in addition to dietary management"}
{"smiles": "CN(C)C(=N)N=C(N)N", "note": "[metformin]", "values": [{"measurement": "diabetic patients with cobalamin malabsorption", "value": 30, "unit": "%"}]}
